{"source": "patent US5654427A", "about": "“Indolocarbazole derivatives to treat a pathological condition of the prostate” (Kyowa Hakko Kogyo Co., Ltd., priority 1995, dated 1997)", "key": {"DU-145": {"system": "DU-145", "test": "growth inhibition of DU-145 prostate cancer cells (calcein fluorescence)", "assay_type": "cell-based", "conditions": "Homo sapiens, DU-145, 72 h; 3 days incubation; read-out: DU-145 C50"}, "[1]": {"system": "androgen independent human prostate cancer cell lines Tsu-Pr1, DuPro-1, PC-3 and DU-145", "test": "growth inhibition of prostate cancer-derived cell lines, overall (calcein fluorescence)", "assay_type": "cell-based", "conditions": "Table 3", "protocol": "(§1) Throughout the experiment the Tsu-Pr1 and Du-Pro1 cells were maintained in RPMI 1640 medium (GIBCO) containing 10% fetal bovine serum (Hyclone), 2 mM glutamine, 100 U/ml penicillin, and 100 μg/ml streptomycin. The PC-3 cells were maintained in Ham's F12K medium (Irvine Scientific) containing 10% fetal bovine serum (Hyclone), 2 mM glutamine, 100 U/ml penicillin, and 100 μg/ml streptomycin. All cell lines were maintained at 37° C. in a humidified atmosphere containing 5% CO2. The DU-145 cells were maintained in minimal essential medium (Gibco), containing 10% fetal bovine serum (Hyclone), 2 mM glutamine, and no antibiotics.\n(§2) Tests for growth inhibition by the candidate compounds were conducted by the following procedure. In each well of a 96-well plate (Falcon) were placed 2,500 cells in 0.1 ml of medium. The cultures were incubated overnight after which a 0.1 ml aliquot of culture medium was added to each well. […] Other control wells received medium without any K-252a derivative compounds. Incubation was continued for three days. On day three the number of cells in each well was measured using a calcein fluorescence assay (Bozyczko-Coyne et al. J. Neurosci. Meth. 50, 205-216 (1993)).\n(§3) Calcein AM (Molecular Probes, Eugene, Oreg.), an analog of the viable dye fluorescein diacetate, is taken up by cells and cleaved intracellularly to fluorescent salts that are retained by intact membranes of viable cells. This method thus provides a reliable and quantitative measurement of cell survival. Calcein AM was diluted 2× in Dulbeccos phosphate buffered saline (D-PBS) to 2× the final assay concentration (6 μM) and 100 μl was added to culture wells containing 100 μl of medium. The plates were then incubated for 1 hour at 37° C. Cells were then washed 4 times with D-PBS to remove excess calcein not taken up by cells. The plate was read using a Millipore plate reading fluorimeter (Cytofluor 2350) at emission=485 nm and excitation=538 nm. After subtraction of blank values (wells containing medium but no cells), relative fluorescent values reflect a quantitative measurement of cell survival. […]"}, "Du-Pro1": {"system": "Du-Pro1", "test": "growth inhibition of Du-Pro1 prostate cancer cells (calcein fluorescence)", "assay_type": "cell-based", "conditions": "Homo sapiens, 72 h; 3 days incubation; read-out: Du-Pro1 IC50"}, "[2]": {"test": "body weight and weight of peripheral organs in sexually immature mice", "conditions": "for Body Weight: Table 6, TEPBS 32.0 ± 0.6; for Heart weight / Testes weight / Stomach weight / Lung weight / Kidney weight / Liver weight: Table 7; for Heart weight: TEPBS 170 ± 10; for Testes weight: TEPBS 206 ± 8; for Stomach weight: TEPBS 272 ± 14; for Lung weight: TEPBS 280 ± 15; for Kidney weight: TEPBS 589 ± 34; for Liver weight: TEPBS 2004 ± 69", "source_text": "(§4) The following animal model can be used to test the efficacy of a functional derivative for treatment of a proliferative prostate condition. Sexually immature male mice of 15-20 g each (Charles River Laboratories, Raleigh, N.C.) were used in the following in vivo study. The mice were allowed at least 3 days after purchase to acclimate before being used in any experiments.\n(§5) Each test group contained 12 mice. […] At the end of the 21 day dosing period the mice were sacrificed and whole body blood, dorsal prostate, ventral prostate, coagulating glands, seminal vesicles, heart, liver, stomach, lung, kidneys and testes were collected separately and weighed."}, "prostate glands": {"system": "prostate glands", "test": "inhibition of prostate growth in sexually immature mice (weight of prostate glands)", "assay_type": "in vivo", "conditions": "for Ventral Prostate weight / Dorsal Prostate weight / Coagulat-ing Glands weight / Seminal Vesicles weight: Table 6; for Ventral Prostate weight: TEPBS 14.0 ± 0.8; for Dorsal Prostate weight: TEPBS 14.6 ± 1.4; for Coagulat-ing Glands weight: TEPBS 29.6 ± 2.0; for Seminal Vesicles weight: TEPBS 71.4 ± 2.4", "source_text": "as §4, §5"}, "Tsu-Pr1": {"system": "Tsu-Pr1", "test": "growth inhibition of Tsu-Pr1 prostate cancer cells (calcein fluorescence)", "assay_type": "cell-based", "conditions": "Homo sapiens, TSU-Pr1, 72 h; 3 days incubation; read-out: Tsu-Pr1 IC50"}, "PC-3": {"system": "PC-3", "test": "growth inhibition of PC-3 prostate cancer cells (calcein fluorescence)", "assay_type": "cell-based", "conditions": "Homo sapiens, PC-3, 72 h; 3 days incubation; read-out: PC-3 IC50", "protocol": "as §1, §2, §3"}, "[3]": {"system": "Dunning R-3327 AT-2.1 prostate tumor", "test": "inhibition of growth of Dunning R-3327 AT-2.1 prostate tumor in adult male Copenhagen rats", "assay_type": "in vivo, rat", "conditions": "10 mg/kg/day s.c.", "source_text": "The AT-2 tumor is a highly anaplastic cell line derived from the original slow-growing androgen-dependent Dunning R-3327 H rat prostate tumor (Issacs et al., Prostate 9:261-281, 1986). The AT-2 tumor model has been used to characterize other potential anti-prostatic cancer agents including linomide (Ichikawa et al., Cancer Research 52:3022-3028, 1992) and suramin (Morton et al., Prostate 17:327-336, 1990) which is undergoing evaluation in clinical trials for androgen-independentprostate cancer (Eisenberger et al., J. Natl. Can. Inst. 85: 611-621, 1993).\nExperimental Protocol: Twenty-four inbred male Copenhagen rats were inoculated subcutaneously in the flank with 1×10^6 viable AT-2.1 tumor cells. All animals were allowed to develop tumors of approximately 2.7 cm^3 in size (approximately 14 days) before being randomized into three groups of 8 animals each. Group 1 received daily subcutaneous injections of vehicle alone (1 ml/kg body weight). […] All animals had their tumor sizes evaluated for a period of 16 days. Tumor volume was calculated using the formula (1×w^2)×0.5."}}, "data": [{"compound": "COC1(CO)CC2OC1(C)n1c3ccccc3c3c4c(c5c6ccccc6n2c5c31)C(=O)NC4", "note": "(centres unmarked) [Compound I-19]", "values": [{"measurement": "IC50", "setting": "DU-145", "value": 110, "unit": "nM"}, {"measurement": "potency in inhibiting prostate cell line growth, in words", "setting": "[1]", "value": "most potent compounds in inhibiting growth in all four cell lines"}, {"measurement": "IC50", "setting": "Du-Pro1", "value": 270, "unit": "nM"}, {"measurement": "Body Weight", "setting": "[2]; 1 mg/kg", "value": "31.9 ± 0.8", "unit": "g"}, {"measurement": "Body Weight", "setting": "[2]; 10 mg/kg", "value": "31.2 ± 0.5", "unit": "g"}, {"measurement": "Heart weight", "setting": "[2]; 1 mg/kg", "value": "160 ± 20", "unit": "mg"}, {"measurement": "Testes weight", "setting": "[2]; 1 mg/kg", "value": "205 ± 7", "unit": "mg"}, {"measurement": "Stomach weight", "setting": "[2]; 1 mg/kg", "value": "252 ± 12", "unit": "mg"}, {"measurement": "Lung weight", "setting": "[2]; 1 mg/kg", "value": "323 ± 16", "unit": "mg"}, {"measurement": "Kidney weight", "setting": "[2]; 1 mg/kg", "value": "467 ± 18", "unit": "mg"}, {"measurement": "Liver weight", "setting": "[2]; 1 mg/kg", "value": "1968 ± 58", "unit": "mg"}, {"measurement": "Heart weight", "setting": "[2]; 10 mg/kg", "value": "166 ± 8", "unit": "mg"}, {"measurement": "Testes weight", "setting": "[2]; 10 mg/kg", "value": "208 ± 8", "unit": "mg"}, {"measurement": "Stomach weight", "setting": "[2]; 10 mg/kg", "value": "242 ± 11", "unit": "mg"}, {"measurement": "Lung weight", "setting": "[2]; 10 mg/kg", "value": "276 ± 18", "unit": "mg"}, {"measurement": "Kidney weight", "setting": "[2]; 10 mg/kg", "value": "563 ± 17", "unit": "mg"}, {"measurement": "Liver weight", "setting": "[2]; 10 mg/kg", "value": "1933 ± 70", "unit": "mg"}, {"measurement": "weights of ventral prostate, dorsal prostate, seminal vesicles, and coagulating glands, in words", "setting": "prostate glands; 1 mg/kg", "value": "significantly reduced the weights of ventral prostate, dorsal prostate, seminal vesicles, and coagulating glands"}, {"measurement": "weights of ventral prostate, dorsal prostate, seminal vesicles, and coagulating glands, in words", "setting": "prostate glands; 10 mg/kg", "value": "significantly reduced the weights of ventral prostate, dorsal prostate, seminal vesicles, and coagulating glands"}, {"measurement": "Ventral Prostate weight", "setting": "prostate glands; 1 mg/kg", "value": "11.0 ± 0.9", "unit": "mg"}, {"measurement": "Dorsal Prostate weight", "setting": "prostate glands; 1 mg/kg", "value": "10.4 ± 0.9", "unit": "mg"}, {"measurement": "Coagulat-ing Glands weight", "setting": "prostate glands; 1 mg/kg", "value": "24.6 ± 1.4", "unit": "mg"}, {"measurement": "Seminal Vesicles weight", "setting": "prostate glands; 1 mg/kg", "value": "60.0 ± 2.2", "unit": "mg"}, {"measurement": "Ventral Prostate weight", "setting": "prostate glands; 10 mg/kg", "value": "10.5 ± 0.6", "unit": "mg"}, {"measurement": "Dorsal Prostate weight", "setting": "prostate glands; 10 mg/kg", "value": "7.2 ± 0.8", "unit": "mg"}, {"measurement": "Coagulat-ing Glands weight", "setting": "prostate glands; 10 mg/kg", "value": "23.6 ± 0.8", "unit": "mg"}, {"measurement": "Seminal Vesicles weight", "setting": "prostate glands; 10 mg/kg", "value": "52.0 ± 2.0", "unit": "mg"}, {"measurement": "IC50", "setting": "Tsu-Pr1", "value": 70, "unit": "nM"}, {"measurement": "IC50", "setting": "PC-3", "value": 5000, "unit": "nM"}, {"measurement": "inhibiting growth of AT-2.1 tumors", "setting": "[3]; approximately", "value": "50-60%"}, {"measurement": "Tumor volume Day 0", "setting": "[3]; vehicle 2.73 ± 0.50", "value": "2.62 ± 0.53", "unit": "cm^3"}, {"measurement": "Tumor volume Day 3", "setting": "[3]; vehicle 6.66 ± 1.48", "value": "5.52 ± 1.10", "unit": "cm^3"}, {"measurement": "Tumor volume Day 8", "setting": "[3]; vehicle 21.0 ± 3.0", "value": "11.3 ± 1.8", "unit": "cm^3"}, {"measurement": "Tumor volume Day 13", "setting": "[3]; vehicle 37.3 ± 4.0", "value": "22.4 ± 2.7", "unit": "cm^3"}, {"measurement": "Tumor volume Day 16", "setting": "[3]; vehicle 58.7 ± 5.0", "value": "28.4 ± 5.1", "unit": "cm^3"}]}]}
